# Experimental data from PMC9229894, “In Silico, In Vitro, and Pharmacokinetic Studies of UBMC-4, a Potential Novel Compound for Treating against Trypanosoma cruzi” (Pathogens, 2022).
# Entries after “also recorded” stand apart in the source; their conditions may differ.
# How the values were obtained:
# T. cruzi trypomastigotes [1] = assay: Flow cytometry of apoptosis-like markers in trypomastigotes; format: cell-based, Trypanosoma cruzi; details: 10 µM; for DNA damage (hypodiploidy), % of trypomastigote population: time not given
# Method: Apoptosis-like markers were analyzed by triple staining using 3,3′-dihexyloxacarbocyanine (DiOC6), propidium iodide (PI), and Hoechst from Thermo Fisher Scientific to determine the change of mitochondrial membrane potential (ΔΨm), cell membrane damage, and impairment of cell cycle, respectively. All readings were performed on a BD FACSCanto II 4/2/2 Sys IVD flow cytometer, and data obtained were analyzed using the FlowJo7.6.2 software. Differences between treatments were determined by a two-way ANOVA for multiple comparisons with 95% significance using GraphPad Prism 8. In all cases, 20 µL of parasites (5 × 10^6/mL) were stained per treatment with 300 µL of Hanks’ balanced saline solution (HBSS) and 10 µL of the staining mix containing […], 0.5 µL of 70 nM DiOC6, and 0.5 µL of 10 mg/mL Hoechst. Subsequently, parasites were incubated at room temperature for 15 min until reading.
# The same markers mentioned above were used for T. cruzi trypomastigotes. A total of 1 × 10^6 trypomastigotes were centrifuged at 1800 RCF for 5 min to remove the culture medium. Parasites were cultured at […] in PBS or 10% FBS-supplemented DMEM with or without 10 µM UBMC-4, 10 µM chloroquine, and 10 µM UBMC-4/chloroquine for 2 h and 5 h. All experiments were compared to a culture setup using bz as control compound. Three biological replicates and three experimental replicates were applied to data collected at each time point for experimental conduction of every portion of the study. In all cases, ANOVA was applied for multiple comparisons after determining that data were normal.
# [2] = Cytotoxicity, MTT method, HepG2; format: cell-based; details: human, HepG2 cells, read-out: LC50 median lethal concentration HepG2
# Method: Cytotoxicity of UBMC-4 was tested in HepG2, CaCo2, and huMDM cell lines according to the effect on cell growth determined by the MTT microenzimatic method, as described by others. Briefly, 2.0 × 10^4 U-937 and huMDM or 2.5 × 10^4 HepG2 and CaCo2 cells were dispensed in 200 µL into each well of a 96-well tissue culture plate containing the corresponding culture medium. Then, 100 µL/well of each compound at a concentration of […] were added and plates were incubated at 37 °C, 5% CO2. After 72 h of incubation, 20 μL of MTT (Sigma-Aldrich, St Louis, MO, USA) were added to each well and plates were incubated for 3 h at 37 °C, 5% CO2. […] The concentration of formazan was determined at 570 nm in a spectrophotometer (Varioskan Flash Multimode Reader, Thermo Scientific, Waltham, MA, USA). […] Cytotoxicity was determined according to the percentages of viability and cell growth inhibition obtained for each compound, bz, doxorubicin, or medium alone. Non-specific absorbance was corrected by subtracting the OD of the blank (culture medium). Percentages of mortality were calculated using equation, as follows: % mortality = 100 − [(O.D. of treated cells)/(O.D. of non-treated cells)] × 100. The half maximal effective concentration (EC50) was calculated by the linear regression model Probit using Graphpad Prism software.
# T. cruzi trypomastigotes [3] = assay: Morphological changes of trypomastigotes incubated with UBMC-4 (data not shown); format: cell-based, Trypanosoma cruzi; details: 10 µM
# Solubility remark = format: physicochemical
# T. cruzi epimastigotes = assay: Scanning and transmission electron microscopy of epimastigotes under nutritional stress; format: cell-based, Trypanosoma cruzi; details: 10 µM, nutritional stress (PBS) 6 h
# Method: Epimastigotes untreated and treated with 10 uM of UBMC-4 under nutritional stress conditions (culture medium substitution for PBS for 6 h) were fixed for 2 h using 2.5% glutaraldehyde in cacodylate buffer 0.1 M. Parasites adhered for 10 min onto coverslips previously coated with 0.1% poly-L-lysin and subsequently washed with cacodylate buffer and dehydrated using 30%, 50%, 70%, and 90% (v/v) acetone for 5 min on each incubation. Subsequently, the cells were critically dried under CO2 and attached to the heel of the SEM instrument. Finally, samples were coated with a 20 nm-thick gold layer and analyzed in a Jeol JSM6010Plus-LA scanning electron microscope at 20 kV. For TEM, parasites were fixed for 2 h with glutaraldehyde and cacodylate buffer and then treated for 1 h with 1% OsO4 diluted in the same buffer. Parasites were dehydrated as above and then embedded in PolyBed-812 resin. Ultrathin sections were collected in copper grids and stained with 5% aqueous uranyl acetate and lead citrate. Samples were examined in a Jeol JEM-1400plus transmission electron microscope at 80 kV.
structure (smiles),measurement,setting,value
"Oc1ccc(-c2nc(-c3ccc4sc5ccccc5c4c3)c(-c3ccccc3)[nH]2)cc1 [UBMC-4, 4-(4-dibenzo-[b,d]-thien-2-yl-5-phenyl-1H-imidazol-2-yl)phenol]",mitochondrial membrane potential change,"T. cruzi trypomastigotes [1]; normal nutritional conditions, 2 h",remained intact (no hyper- or depolarization)
same,"cell membrane permeability, % of trypomastigote population","T. cruzi trypomastigotes [1]; normal nutritional conditions, 5 h",2.2%
same,"DNA damage (hypodiploidy), % of trypomastigote population",T. cruzi trypomastigotes [1]; normal nutritional conditions,23%
same,"Ψm depolarization, % of trypomastigotes","T. cruzi trypomastigotes [1]; nutritional stress, 2 h",32%
same,"cell membrane permeability, % of trypomastigote population","T. cruzi trypomastigotes [1]; nutritional stress, 5 h",36%
same,"Ψm depolarization, % of trypomastigotes","T. cruzi trypomastigotes [1]; nutritional stress, 5 h",40%
same,"DNA damage (hypodiploidy), % of trypomastigote population",T. cruzi trypomastigotes [1]; nutritional stress,54%
same,CC50 at 72 h,[2],> 40 µM
same,morphological changes of trypomastigotes,T. cruzi trypomastigotes [3],much faster progressive morphological changes within the hour
same,solubility,Solubility remark,slight solubility problems
same,"morphology and ultra-structure changes (SEM, TEM)",T. cruzi epimastigotes,"progressive alterations such as flagellum inactivation, cell size reduction, nuclear structure alteration, condensation of chromatin towards the nuclear periphery, vacuole formation, mitochondrial swelling with kinetoplast integrity loss; also recorded: non-reversible morphological damage"
